These results are taken from ChEMBL document CHEMBL4261530, “Rational design and synthesis of novel phenylsulfonyl-benzamides as anti-prostate cancer agents” (Medchemcomm, 2017).

Assay [1] concerns LNCaP. In words: Antiproliferative activity against human LNCAP cells after 96 hrs by propidium iodide staining-based fluorescence assay. The class given is functional, cell-based.
Assay [2] has as its system CWR22R. In words: Potency index, ratio of enzalutamide IC50 to test compound IC50 for human 22Rv1 cells. The class given is functional.
The test system of assay [3] is DU-145. In words: Potency index, ratio of enzalutamide IC50 to test compound IC50 for human DU145 cells. The class given is functional.
Assay [4] deals with CWR22R. In words: Antiproliferative activity against human 22Rv1 cells after 96 hrs by propidium iodide staining-based fluorescence assay. The class given is functional, cell-based.
Assay [5] has as its system VCaP. In words: Antiproliferative activity against human VCaP cells after 96 hrs by propidium iodide staining-based fluorescence assay. The class given is functional, cell-based.
Assay [6] relates to LNCaP. Briefly: Potency index, ratio of enzalutamide IC50 to test compound IC50 for human LNCAP cells. The class given is functional.
Assay [7] has as its system VCaP. Briefly: Potency index, ratio of enzalutamide IC50 to test compound IC50 for human VCaP cells. The class given is functional.
In assay [8] the test system is DU-145. In words: Antiproliferative activity against human DU145 cells after 96 hrs by propidium iodide staining-based fluorescence assay. The class given is functional, cell-based.

`O=C(Nc1cc(C(F)(F)F)ccc1C(F)(F)F)c1ccc(S(=O)(=O)c2ccc(O)cc2)cc1`: the Activity result in the assay with LNCaP [1], in the assay with CWR22R [4], in the assay on VCaP [5] and with DU-145 [8] was “Dose-dependent effect” throughout. For the same compound, the “Ratio IC50” value in the assay on CWR22R [2], in the assay on DU-145 [3], in the assay with LNCaP [6] and in the assay with VCaP [7] was “<=8” throughout.
On to `O=C(Nc1cc(C(F)(F)F)cc(C(F)(F)F)c1)c1ccc(S(=O)(=O)c2ccc(O)cc2)cc1`, for which the Activity result with LNCaP [1], in the assay with CWR22R [4], in the assay with VCaP [5] and in the assay with DU-145 [8] was “Dose-dependent effect” each time. Further, the “Ratio IC50” value in the assay on CWR22R [2], in the assay with DU-145 [3], in the assay on LNCaP [6] and in the assay on VCaP [7] was “<=8” throughout.
With `O=C(Nc1ccc([N+](=O)[O-])c(C(F)(F)F)c1)c1ccc(Sc2ccc(O)cc2)cc1`, the Activity result in the assay with LNCaP [1], with CWR22R [4], in the assay with VCaP [5] and with DU-145 [8] was “Dose-dependent effect” in each case. Further, the “Ratio IC50” value with CWR22R [2], with DU-145 [3], in the assay on LNCaP [6] and with VCaP [7] was “<=8” throughout.
For `O=C(Nc1ccccc1C(F)(F)F)c1ccc([S+]([O-])c2ccc(O)cc2)cc1` (stereo not given), the Activity entry with LNCaP [1], with CWR22R [4], in the assay on VCaP [5] and in the assay with DU-145 [8] was “Dose-dependent effect” throughout.
`O=C(Nc1cc(C(F)(F)F)cc(C(F)(F)F)c1)c1ccc(Sc2ccc(O)cc2)cc1`: the Activity entry in the assay with LNCaP [1], in the assay with CWR22R [4], in the assay on VCaP [5] and with DU-145 [8] was “Dose-dependent effect” throughout. In addition, the “Ratio IC50” value in the assay with CWR22R [2], with DU-145 [3], with LNCaP [6] and in the assay on VCaP [7] was “<=8” each time.
On to `O=C(Nc1cccc(S(F)(F)(F)(F)F)c1)c1ccc(Sc2ccc(O)cc2)cc1`, for which the Activity result in the assay with LNCaP [1], in the assay on CWR22R [4], in the assay on VCaP [5] and in the assay with DU-145 [8] was “Dose-dependent effect” in each case. The “Ratio IC50” value in the assay with CWR22R [2], in the assay on DU-145 [3], in the assay with LNCaP [6] and in the assay on VCaP [7] was “<=8” throughout.
Take `O=C(Nc1ccccc1C(F)(F)F)c1ccc(S(=O)(=O)c2ccc(O)cc2)cc1`: the Activity result in the assay with LNCaP [1], with CWR22R [4], in the assay with VCaP [5] and in the assay with DU-145 [8] was “Dose-dependent effect” in each case. In addition, the “Ratio IC50” value in the assay on CWR22R [2], in the assay on DU-145 [3], in the assay with LNCaP [6] and in the assay with VCaP [7] was “<=8” each time.
`N#Cc1ccc(NC(=O)c2ccc(Sc3cccc(C(F)(F)F)c3)cc2)cc1C(F)(F)F`: the Activity entry in the assay on LNCaP [1], in the assay on CWR22R [4], in the assay with VCaP [5] and with DU-145 [8] was “Dose-dependent effect” each time. Further, the “Ratio IC50” value in the assay on CWR22R [2], in the assay on DU-145 [3], in the assay with LNCaP [6] and with VCaP [7] was “<=8” throughout.
On to `O=C(Nc1ccc([N+](=O)[O-])c(C(F)(F)F)c1)c1ccc(S(=O)(=O)c2ccc(O)cc2)cc1`, for which the Activity entry with LNCaP [1], in the assay with CWR22R [4], with VCaP [5] and in the assay on DU-145 [8] was “Dose-dependent effect” each time. In addition, the “Ratio IC50” value in the assay on CWR22R [2], with DU-145 [3], in the assay on LNCaP [6] and in the assay on VCaP [7] was “<=8” each time.
Regarding `N#Cc1ccc(NC(=O)c2ccc(Sc3ccc(O)cc3)cc2)cc1C(F)(F)F`, the Activity result in the assay on LNCaP [1], in the assay with CWR22R [4], in the assay on VCaP [5] and in the assay on DU-145 [8] was “Dose-dependent effect” in each case. The “Ratio IC50” value in the assay with CWR22R [2], with DU-145 [3], with LNCaP [6] and in the assay on VCaP [7] was “<=8” throughout.
For the compound `O=C(Nc1cccc(C(F)(F)F)c1)c1ccc(S(=O)(=O)c2cccc(C(F)(F)F)c2)cc1`, the IC50 entry with LNCaP [1], with CWR22R [4], in the assay with VCaP [5] and with DU-145 [8] was “Nd(Insoluble)” each time.
With `O=C(Nc1ccc(S(F)(F)(F)(F)F)cc1)c1ccc([S+]([O-])c2ccc(O)cc2)cc1` (stereo not given), the Activity result in the assay on LNCaP [1], in the assay on CWR22R [4], in the assay with VCaP [5] and in the assay with DU-145 [8] was “Dose-dependent effect” each time. The “Ratio IC50” value with CWR22R [2], in the assay on DU-145 [3], in the assay with LNCaP [6] and with VCaP [7] was “<=8” each time.
With `O=C(Nc1cccc(S(F)(F)(F)(F)F)c1)c1ccc(S(=O)(=O)c2ccc(O)cc2)cc1`, the Activity result with LNCaP [1], in the assay on CWR22R [4], with VCaP [5] and with DU-145 [8] was “Dose-dependent effect” in each case. The “Ratio IC50” value with CWR22R [2], in the assay on DU-145 [3], with LNCaP [6] and in the assay with VCaP [7] was “<=8” in each case.
Turning to `N#Cc1ccc(NC(=O)c2ccc(S(=O)(=O)c3cccc(C(F)(F)F)c3)cc2)cc1C(F)(F)F`, the Activity entry with LNCaP [1], with CWR22R [4], in the assay with VCaP [5] and in the assay on DU-145 [8] was “Dose-dependent effect” each time. In addition, the “Ratio IC50” value with CWR22R [2], with DU-145 [3], in the assay on LNCaP [6] and with VCaP [7] was “<=8” throughout.
As to `O=C(Nc1cccc(C(F)(F)F)c1)c1ccc(Sc2cccc(C(F)(F)F)c2)cc1`, the Activity result in the assay with LNCaP [1], in the assay with CWR22R [4], in the assay with VCaP [5] and in the assay on DU-145 [8] was “Dose-dependent effect” throughout. In addition, the “Ratio IC50” value with CWR22R [2], with DU-145 [3], with LNCaP [6] and in the assay with VCaP [7] was “<=8” throughout.
As for `O=C(Nc1cccc(C(F)(F)F)c1)c1ccc(S(=O)(=O)c2ccc(O)cc2)cc1`, the Activity entry with LNCaP [1], with CWR22R [4], with VCaP [5] and in the assay on DU-145 [8] was “Dose-dependent effect” each time. The “Ratio IC50” value in the assay on CWR22R [2], in the assay with DU-145 [3], with LNCaP [6] and with VCaP [7] was “<=8” throughout.
With `O=C(Nc1ccc(C(F)(F)F)cc1)c1ccc(S(=O)(=O)c2ccc(O)cc2)cc1`, the Activity result with LNCaP [1], in the assay on CWR22R [4], in the assay with VCaP [5] and in the assay on DU-145 [8] was “Dose-dependent effect” in each case. Further, the “Ratio IC50” value in the assay with CWR22R [2], in the assay on DU-145 [3], in the assay on LNCaP [6] and in the assay on VCaP [7] was “<=8” each time.
Regarding `O=C(Nc1ccc(C(F)(F)F)cc1)c1ccc(Sc2ccc(O)cc2)cc1`, the Activity result in the assay with LNCaP [1], in the assay on CWR22R [4], in the assay with VCaP [5] and with DU-145 [8] was “Dose-dependent effect” in each case. The “Ratio IC50” value with CWR22R [2], in the assay on DU-145 [3], in the assay with LNCaP [6] and in the assay with VCaP [7] was “<=8” throughout.
With `N#Cc1ccc(NC(=O)c2ccc(S(=O)(=O)c3ccc(O)cc3)cc2)cc1C(F)(F)F`, the Activity result in the assay on LNCaP [1], in the assay on CWR22R [4], with VCaP [5] and with DU-145 [8] was “Dose-dependent effect” in each case. Also, the “Ratio IC50” value with CWR22R [2], in the assay with DU-145 [3], in the assay with LNCaP [6] and in the assay with VCaP [7] was “<=8” each time.
In the case of `O=C(Nc1cccc(C(F)(F)F)c1)c1ccc(Sc2ccc(O)cc2)cc1`, the Activity result in the assay with LNCaP [1], in the assay with CWR22R [4], with VCaP [5] and with DU-145 [8] was “Dose-dependent effect” throughout. The “Ratio IC50” value in the assay with CWR22R [2], in the assay on DU-145 [3], in the assay on LNCaP [6] and in the assay on VCaP [7] was “<=8” throughout.
For the compound `O=C(Nc1ccccc1C(F)(F)F)c1ccc(Sc2ccc(O)cc2)cc1`, the Activity entry in the assay on LNCaP [1], in the assay on CWR22R [4], in the assay on VCaP [5] and in the assay with DU-145 [8] was “Dose-dependent effect” in each case. Further, the “Ratio IC50” value in the assay with CWR22R [2], in the assay with DU-145 [3], in the assay with LNCaP [6] and in the assay on VCaP [7] was “<=8” each time.
